# Patent publication US7655799B2, “2{[2-(substituted amino)ethyl]sulfonyl}ethyl N,N,N',N'-tetrakis(2-chloroethyl)phosphorodiamidates” (Telik, Inc., priority 2006, dated 2010)
# pIC50: −log10 of the molar value.
# What was measured:
# [1] = test system: DLD-1 (colorectal adenocarcinoma); assay: Cytotoxicity/Growth Inhibition Assay (CellTiter-Glo), DLD-1; type: cell-based; conditions: Homo sapiens, DLD-1, 96 h; hydrochloride salts; 4 days culture
# Protocol: (§1) The human cancer cell lines DLD-1 (colorectal adenocarcinoma), LNCaP (prostate carcinoma), and MIA PaCa-2 (pancreatic carcinoma) were obtained from the American Type Culture Collection, Manassas, Va., U.S.A., and MX-1 (breast carcinoma) from the National Cancer Institute, Bethesda, Md., U.S.A. The CellTiter-Glo assay kit was obtained from Promega Corporation, Madison, Wis., U.S.A. All products were used in accordance with manufacturer's directions. All assays were conducted in triplicate wells, with dimethyl sulfoxide (DMSO) solvent control. The extent of cell growth was expressed as a percentage of the signal from the solvent control wells.
# (§2) Log-phase cells were trypsinized, collected by centrifugation, and resuspended in a small volume of fresh medium, and the density of viable cells was determined following Trypan Blue staining. Cells were diluted in fresh media (3×10^3 cells/mL for DLD-1, MIA PaCa-2, and MX-1, and 6×10^3 cells/mL for LNCaP), and added at 150 μL/well to 96-well plates, and incubated for several hours to allow attachment in the case of adherent cells. Compounds 1A to 5A, as their hydrochloride salts, dissolved in DMSO, was diluted 50-fold with fresh medium and the diluted solutions immediately added at 50 μL/well to the cell suspensions, giving final compound concentrations between 0.1 μM and 200 μM and a final DMSO concentration of 0.5%. The cells were cultured for approximately three doubling times (3 days for MIA PaCa-2 and MX-1, and 4 days for DLD-1 and LNCaP). The cells were then collected by centrifugation, and 100 μL of the culture supernatant was replaced by the CellTiter-Glo reagent. After incubation for 10 minutes at room temperature, and the plate was read with a luminometer. A number of compounds of formula A were tested in this assay and found to be active.
# [2] = test system: MIA PaCa-2 (pancreatic carcinoma); assay: Cytotoxicity/Growth Inhibition Assay (CellTiter-Glo), MIA PaCa-2; type: cell-based; conditions: Homo sapiens, MIA PaCa-2, 72 h; hydrochloride salts; 3 days culture
# Protocol: as §1, §2
# [3] = test system: MX-1 tumor; assay: MX-1 Xenograft Assay, Intraperitoneal Administration; type: in vivo, athymic nu/nu mice; conditions: hydrochloride salts in aqueous 5% dextrose
# Protocol: (§3) Female athymic nu/nu mice (Harlan, Indianapolis, Ind., U.S.A. or similar vendor), 6-8 weeks old (approximately 20 g), were implanted in the mammary fat pad of the right fore flank with 20-30 mg pieces of MX-1 tumor harvested from similar nu/nu mice that had previously been implanted with the MX-1 tumor. […] Groups of mice were treated with compounds 2A and 3A at 50 mg/Kg and compounds 1A, 2A, 3A, and 5A at 100 mg/Kg, in all cases as the hydrochloride salts dissolved in aqueous 5% dextrose, by intraperitoneal injection once/day for 5 consecutive days, with vehicle control. Tumor mass, estimated from volume, was measured twice weekly; and tumor growth inhibition was measured when the average tumor mass in the control group first exceeded 2000 mg. All compounds were active in this assay, with tumor growth inhibition compared to vehicle of 70% and 23% for compounds 2A and 3A, respectively, at 50 mg/Kg, and 100%, 100%, 100%, and 91% for compounds 1A, 2A, 3A, and 5A, respectively, at 100 mg/Kg.
# [4] = test system: LNCaP (prostate carcinoma); assay: Cytotoxicity/Growth Inhibition Assay (CellTiter-Glo), LNCaP; type: cell-based; conditions: Homo sapiens, 96 h, hydrochloride salts, 4 days culture
# Protocol: as §1, §2
# [5] = Solubility in water of salts; conditions: for solubility: water, solubility in water
# [6] = test system: MX-1 (breast carcinoma); assay: Cytotoxicity/Growth Inhibition Assay (CellTiter-Glo), MX-1; type: cell-based; conditions: Homo sapiens, 72 h; hydrochloride salts; 3 days culture
# Protocol: as §1, §2
# [7] = test system: human cancer cell lines DLD-1, LNCaP, MIA PaCa-2, MX-1; assay: Cytotoxicity/Growth Inhibition Assay, all cell lines, comparison with canfosfamide; type: cell-based; conditions: all assays (DLD-1, LNCaP, MIA PaCa-2, MX-1)
# Protocol: as §1
# Log-phase cells were trypsinized, collected by centrifugation, and resuspended in a small volume of fresh medium, and the density of viable cells was determined following Trypan Blue staining. Cells were diluted in fresh media (3×10^3 cells/mL for DLD-1, MIA PaCa-2, and MX-1, and 6×10^3 cells/mL for LNCaP), and added at 150 μL/well to 96-well plates, and incubated for several hours to allow attachment in the case of adherent cells. […] After incubation for 10 minutes at room temperature, and the plate was read with a luminometer. […]
# [8] = test system: MX-1 tumor; assay: MX-1 Xenograft Assay, Intravenous Administration; type: in vivo, athymic nu/nu mice; conditions: hydrochloride salt in aqueous 5% dextrose
# Protocol: as §3
# A study similar to that described in In vivo Example 1 was performed using intravenous administration of compound 2A. A group of mice was treated with the compound, as the hydrochloride salt dissolved in aqueous 5% dextrose, at 40 and 80 mg/Kg by tail vein injection once/day for 5 consecutive days, with vehicle control.
# [9] = test system: MX-1 tumor; assay: MX-1 Xenograft Assay, Oral Administration; type: in vivo, athymic nu/nu mice; conditions: hydrochloride salt in water
# Protocol: as §3
# A study similar to that described in In vivo Example 1 was performed using oral administration of compounds 2A and 3A. Groups of mice were treated with compound 2A at 100, 150, 200, or 300 mg/Kg, or compound 3A at 150 mg/Kg, in each case as the hydrochloride salts dissolved in water, by gavage once/day for 5 consecutive days, with vehicle control. Both compounds were active in this assay and compound 2A caused dose-dependent tumor inhibition.
# [10] = test system: MIA PaCa-2 tumor; assay: MiaPaCa-2 Xenograft Assay, Intraperitoneal Administration; type: in vivo, athymic nu/nu mice; conditions: 100 mg/Kg intraperitoneal once/day for 7 days; for tumor growth inhibition compared to vehicle: hydrochloride salts in aqueous 5% dextrose
# Protocol: Male athymic nu/nu mice, 6-8 weeks old (approximately 20 g), were implanted subcutaneously in the right fore flank with 20-30 mg pieces of MIA PaCa-2 tumor harvested from similar nu/nu mice that had previously been implanted with the MIA PaCa-2 tumor. […] A group of mice was treated with compounds 2A, 3A, and 5A, in all cases as the hydrochloride salts dissolved in aqueous 5% dextrose, at 100 mg/Kg by intraperitoneal injection once/day for 7 consecutive days, with vehicle control.
# [11] = 100 mg/Kg intraperitoneal once/day for 5 days
# [12] = 50 mg/Kg intraperitoneal once/day for 5 days
SMILES,pIC50 [1],pIC50 [2],"tumor growth inhibition compared to vehicle [3, 11] [%]",pIC50 [4],solubility in water (in words) ([5]; citrate salt),solubility in water (in words) ([5]; hydrochloride salt),pIC50 [6],potency relative to canfosfamide [7],inhibition of tumor growth compared to vehicle ([8]; 40 mg/Kg tail vein injection once/day for 5 days) [%],inhibition of tumor growth compared to vehicle ([8]; 80 mg/Kg tail vein injection once/day for 5 days) [%],inhibition of tumor growth compared to vehicle ([9]; 100 mg/Kg by gavage once/day for 5 days) [%],inhibition of tumor growth compared to vehicle ([9]; 300 mg/Kg by gavage once/day for 5 days) [%],"tumor growth inhibition compared to vehicle [3, 12] [%]",solubility in water (in words) ([5]; tartrate salt),solubility ([5]; citrate salt) [mg/mL],solubility ([5]; hydrochloride salt) [mg/mL],body weight effect [10],tumor growth inhibition compared to vehicle [10] [%],inhibition of tumor growth compared to vehicle ([9]; 150 mg/Kg by gavage once/day for 5 days) [%]
"CN(C)CCS(=O)(=O)CCOP(=O)(N(CCCl)CCCl)N(CCCl)CCCl [Compound 1A, 2-{[2-(dimethylamino)ethyl]sulfonyl}ethyl N,N,N′,N′-tetrakis(2-chloroethyl)phosphorodiamidate]",4.96,4.41,100,3.89,somewhat more soluble than the citrate salt of compound 2A,highly soluble in water,4.37,–,–,–,–,–,–,–,–,–,–,–,–
"CCN(CC)CCS(=O)(=O)CCOP(=O)(N(CCCl)CCCl)N(CCCl)CCCl [Compound 2A, 2-{[2-(diethylamino)ethyl]sulfonyl}ethyl N,N,N′,N′-tetrakis(2-chloroethyl)phosphorodiamidate]",5.10,4.80,100,4.12,–,–,4.80,more potent,53,99,92,100,70,slightly more soluble than the citrate salt,~19,≥ 50,some body weight loss,89,–
"CC(C)N(CCS(=O)(=O)CCOP(=O)(N(CCCl)CCCl)N(CCCl)CCCl)C(C)C [Compound 3A, 2-{[2-(diisopropylamino)ethyl]sulfonyl}ethyl N,N,N′,N′-tetrakis(2-chloroethyl)phosphorodiamidate]",5.30,5.17,100,4.80,–,–,5.30,more potent,–,–,–,–,23,–,–,–,some body weight loss,89,98
"O=P(OCCS(=O)(=O)CCN1CCCC1)(N(CCCl)CCCl)N(CCCl)CCCl [Compound 4A, 2-{[2-(pyrrolidin-1-yl)ethyl]sulfonyl}ethyl N,N,N′,N′-tetrakis(2-chloroethyl)phosphorodiamidate]",5.07,4.54,–,4.00,–,–,4.59,–,–,–,–,–,–,–,–,–,–,–,–
"O=P(OCCS(=O)(=O)CCN1CCCCC1)(N(CCCl)CCCl)N(CCCl)CCCl [Compound 5A, 2-{[2-(piperidin-1-yl)ethyl]sulfonyl}ethyl N,N,N′,N′-tetrakis(2-chloroethyl)phosphorodiamidate]",4.89,4.44,91,3.85,–,–,4.39,–,–,–,–,–,–,–,–,–,some body weight loss,62,–
